Laboratory results reported in patent US20210253557A1, “SUBSTITUTED TRIAZOLE DERIVATIVES AND USES THEREOF” (Bayer Pharma Aktiengesellschaft, priority 2017, published 2021).

Legend:
human V2 receptor = biological target: T1, human V2 receptor (Homo sapiens, UniProt P30518); assay: Cellular in vitro assay for determining vasopressin receptor activity (V2, CRE-luciferase); type: cell-based; conditions: CHO cell line transfected with the human V2 receptor; [Arg8]-vasopressin at EC50 concentration; read-out: IC50 hV2
T1 construct: expressed in transfected cells; host or cells: CHO K1 (ATCC) expressing firefly luciferase under a CRE-responsive promoter
How it was run: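 Antagonism was measured as inhibition of a 3-h, EC50-level [Arg8]-vasopressin stimulation, with compounds tested at several concentrations, yielding IC50 values. The read-out was cAMP-driven CRE-luciferase luminescence after lysis, in recombinant CHO K1 cells carrying human V2 receptor. Cells were seeded in 2% FCS DMEM/F12 one day earlier.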

human V1a receptor = biological target: T2, human V1a receptor (Homo sapiens, UniProt P37288); assay: Cellular in vitro assay for determining vasopressin receptor activity (V1a, aequorin luminescence); type: cell-based; conditions: for IC50: CHO cell line transfected with the human V1a receptor, [Arg8]-vasopressin at EC50 concentration, read-out: IC50 hV1a; for ratio IC50 hV2/hV1a: selectivity ratio of IC50 hV2 to IC50 hV1a
T2 construct: expressed in transfected cells; host or cells: CHO K1 (ATCC), also stably transfected with a modified aequorin
T2 sequence (P37288 whole entry): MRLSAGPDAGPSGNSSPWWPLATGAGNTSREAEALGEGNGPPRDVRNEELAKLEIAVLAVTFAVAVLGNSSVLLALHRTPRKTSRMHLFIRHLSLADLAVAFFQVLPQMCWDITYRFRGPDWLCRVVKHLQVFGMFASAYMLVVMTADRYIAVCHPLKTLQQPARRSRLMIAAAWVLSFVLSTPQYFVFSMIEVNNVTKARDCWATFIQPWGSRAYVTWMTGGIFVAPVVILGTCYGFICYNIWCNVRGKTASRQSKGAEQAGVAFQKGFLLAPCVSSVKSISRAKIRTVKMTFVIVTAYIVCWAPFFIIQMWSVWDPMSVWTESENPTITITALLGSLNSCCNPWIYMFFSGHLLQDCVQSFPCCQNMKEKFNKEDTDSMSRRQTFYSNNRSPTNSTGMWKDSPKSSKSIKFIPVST

T1 sequence (P30518 whole entry): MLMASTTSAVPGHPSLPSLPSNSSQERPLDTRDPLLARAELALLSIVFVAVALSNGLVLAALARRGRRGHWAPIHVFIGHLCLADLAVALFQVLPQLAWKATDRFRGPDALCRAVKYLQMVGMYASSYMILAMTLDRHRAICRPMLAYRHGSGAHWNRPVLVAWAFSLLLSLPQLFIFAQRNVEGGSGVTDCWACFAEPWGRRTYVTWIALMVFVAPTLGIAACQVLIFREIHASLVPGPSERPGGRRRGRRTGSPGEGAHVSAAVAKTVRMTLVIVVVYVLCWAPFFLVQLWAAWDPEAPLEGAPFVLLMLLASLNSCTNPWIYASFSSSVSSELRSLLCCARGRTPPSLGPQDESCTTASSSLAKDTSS

Question: Which IC50 (human V2 receptor) does the source give for CN(C)C1(c2nc(Cn3nc(-c4ccc(Cl)cc4)n(C[C@H](O)C(F)(F)F)c3=O)nn2-c2ccccc2Cl)CC1 [Example 79, 5-(4-Chlorophenyl)-2-({1-(2-chlorophenyl)-5-[1-(dimethylamino)cyclopropyl]-1H-1,2,4-triazol-3-yl}methyl)-4-[(2S)-3,3,3-trifluoro-2-hydroxypropyl]-2,4-dihydro-3H-1,2,4-triazol-3-one] here?
Answer: The IC50 was 14.5 nM.

Question: And the IC50 (human V1a receptor)?
Answer: The IC50 was 1 nM.

Question: What about the “ratio IC50 hV2/hV1a” value (human V1a receptor) of the same compound?
Answer: The value was 14.5.

Question: With O=C1CC[C@H](c2nc(Cn3nc(-c4ccc(Cl)cc4)n(C[C@H](O)C(F)(F)F)c3=O)nn2-c2ccccc2Cl)N1 [Example 101, 5-(4-Chlorophenyl)-2-({1-(2-chlorophenyl)-5-[(2R)-5-oxopyrrolidin-2-yl]-1H-1,2,4-triazol-3-yl}methyl)-4-[(2S)-3,3,3-trifluoro-2-hydroxypropyl]-2,4-dihydro-3H-1,2,4-triazol-3-one] as the compound, how does the IC50 (human V2 receptor) read?
Answer: Its IC50 is 3.8 nM.

Question: And the IC50 (human V1a receptor)?
Answer: The IC50 was 0.77 nM.

Question: What about the “ratio IC50 hV2/hV1a” value (human V1a receptor) of the same compound?
Answer: Its value is 4.9.

Question: For O=C1CC[C@@H](c2nc(Cn3nc(-c4ccc(Cl)cc4)n(C[C@H](O)C(F)(F)F)c3=O)nn2-c2ccccc2Cl)N1 [Example 102, 5-(4-Chlorophenyl)-2-({1-(2-chlorophenyl)-5-[(2S)-5-oxopyrrolidin-2-yl]-1H-1,2,4-triazol-3-yl}methyl)-4-[(2S)-3,3,3-trifluoro-2-hydroxypropyl]-2,4-dihydro-3H-1,2,4-triazol-3-one], which IC50 (human V2 receptor) is on record?
Answer: The IC50 was 1.2 nM.

Question: What about the IC50 (human V1a receptor) of the same compound?
Answer: The IC50 was 0.25 nM.

Question: What about the “ratio IC50 hV2/hV1a” value (human V1a receptor) of the same compound?
Answer: The value was 4.8.

Question: Which IC50 (human V2 receptor) does the source give for O=C1CC[C@@H](c2nc(Cn3nc(-c4ccc(Cl)cc4)n(C[C@H](O)C(F)(F)F)c3=O)nn2-c2cnccc2Cl)N1 [Example 123, 5-(4-Chlorophenyl)-2-({1-(4-chloropyridin-3-yl)-5-[(2S)-5-oxopyrrolidin-2-yl]-1H-1,2,4-triazol-3-yl}methyl)-4-[(2S)-3,3,3-trifluoro-2-hydroxypropyl]-2,4-dihydro-3H-1,2,4-triazol-3-one] here?
Answer: The IC50 was 34.5 nM.

Question: What about the IC50 (human V1a receptor) of the same compound?
Answer: The IC50 was 1.1 nM.

Question: And the “ratio IC50 hV2/hV1a” value (human V1a receptor)?
Answer: The value was 31.5.
